Each structure is given as a SMILES string. Read-outs that look alike come from different tables or passages of the source.

Series [1] can be described thus: Example 3.2 proof-of-concept PK study: cyclosporine tear fluid concentration and drug released, beagles (Table 3.2). Type of series: in vivo, beagle dogs. Conditions: 0.44 mg dose SG insert, over 32 days, assuming consistent daily release. From the text:
Inserts were removed at 32 days to determine the amount of remaining drug compared to the administered dose.

The conditions of series [2]: 0.7 mg dose SAZ insert, beagles.
The conditions of series [3]: cyclosporine specification provided by the supplier; cited from earlier work.

In the case of `CC=CCC(C)C(O)C1C(=O)NC(CC)C(=O)N(C)CC(=O)N(C)C(CC(C)C)C(=O)NC(C(C)C)C(=O)N(C)C(CC(C)C)C(=O)NC(C)C(=O)NC(C)C(=O)N(C)C(CC(C)C)C(=O)N(C)C(CC(C)C)C(=O)N(C)C(C(C)C)C(=O)N1C` (stereo not drawn) [Cyclosporine, 30-ethyl-33-(1-hydroxy-2-methylhex-4-enyl)-1,4,7,10,12,15,19,25,28-nonamethyl-6,9,18,24-tetrakis(2-methylpropyl)-3,21-di(propan-2-yl)-1,4,7,10,13,16,19,22,25,28,31-undecazacyclotritriacontane-2,5,8,11,14,17,20,23,26,29,32-undecone], the “estimated daily delivered dose” value in series [1] is 6.3 µg/day. Besides, in series [2] (inserts removed at 6 weeks), the “average amount of cyclosporine released in 6 weeks” value came out at 0.37 mg. The “estimated daily delivered dose” value in series [2] (over 6 weeks, assuming consistent daily release) is 8.8 µg/day. In addition, in series [3], the D10 is 0.5 μm, the D50 is reported as 2.1 μm and the D90 is 7.5 μm.
